Results published in PubChem BioAssay (NCI).
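Exposure lasted 48 hours, with cells grown in 96-well plates and compounds tested at five concentrations. At the GI50, growth is halved. The concentration for full growth arrest is given as TGI.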

Legend:
Experiment in all cases: inhibition of tumour cell growth, NCI panel, 48 h
SNB-75 CNS = test system: SNB-75 CNS
TK-10 renal = test system: TK-10 renal
T-47D breast = test system: T-47D breast
SN12C renal = test system: SN12C renal
MALME-3M melanoma = test system: MALME-3M melanoma
NCI-H522 lung = test system: NCI-H522 lung
786-0 renal = test system: 786-0 renal
EKVX NSCLC = test system: EKVX NSCLC
OVCAR-8 ovarian = test system: OVCAR-8 ovarian
MOLT-4 leukemia = test system: MOLT-4 leukemia
MDA-MB-231 breast = test system: MDA-MB-231 breast
SW-620 colon = test system: SW-620 colon
HT29 colon = test system: HT29 colon
SR leukemia = test system: SR leukemia
HOP-62 NSCLC = test system: HOP-62 NSCLC
HOP-92 NSCLC = test system: HOP-92 NSCLC
SK-MEL-5 melanoma = test system: SK-MEL-5 melanoma
UACC-62 melanoma = test system: UACC-62 melanoma
UACC-257 melanoma = test system: UACC-257 melanoma
SF-268 CNS = test system: SF-268 CNS
SK-MEL-28 melanoma = test system: SK-MEL-28 melanoma
OVCAR-4 ovarian = test system: OVCAR-4 ovarian
K-562 leukemia = test system: K-562 leukemia
NCI/ADR-RES ovarian = test system: NCI/ADR-RES ovarian
U251 CNS = test system: U251 CNS
SNB-19 CNS = test system: SNB-19 CNS
MDA-MB-435 = test system: MDA-MB-435
IGROV1 ovarian = test system: IGROV1 ovarian
RPMI-8226 leukemia = test system: RPMI-8226 leukemia
KM12 colon = test system: KM12 colon
HL-60(TB) leukemia = test system: HL-60(TB) leukemia
SF-295 CNS = test system: SF-295 CNS
SK-OV-3 ovarian = test system: SK-OV-3 ovarian
SK-MEL-2 melanoma = test system: SK-MEL-2 melanoma
LOX IMVI melanoma = test system: LOX IMVI melanoma
PC-3 prostate = test system: PC-3 prostate
NCI-H23 lung = test system: NCI-H23 lung
COLO 205 colon = test system: COLO 205 colon
HCT-116 colon = test system: HCT-116 colon
A549 NSCLC = test system: A549 NSCLC
UO-31 renal = test system: UO-31 renal
BT-549 breast = test system: BT-549 breast
RXF 393 renal = test system: RXF 393 renal
NCI-H460 lung = test system: NCI-H460 lung
M14 melanoma = test system: M14 melanoma
CAKI-1 renal = test system: CAKI-1 renal

How did the GI50 (SNB-75 CNS) turn out when O=C(NCCNCCO)c1ccc2oc3cc4ccccc4c(=O)n3c2c1 was run?
The GI50 was 15.2 µM.

What about the TGI (SNB-75 CNS) of the same molecule?
Its TGI is 47.5 µM.

What about the GI50 (TK-10 renal) of the same molecule?
Its GI50 is 9.93 µM.

And the TGI (TK-10 renal)?
The TGI was 20.3 µM.

What about the GI50 (T-47D breast) of the same molecule?
The GI50 was 10.2 µM.

And the TGI (T-47D breast)?
The TGI was 27.4 µM.

And the GI50 (SN12C renal)?
Its GI50 is 10.7 µM.

What about the TGI (SN12C renal) of the same molecule?
Its TGI is 33 µM.

And the GI50 (MALME-3M melanoma)?
Its GI50 is 12.2 µM.

And the TGI (MALME-3M melanoma)?
Its TGI is 24.1 µM.

What about the GI50 (NCI-H522 lung) of the same molecule?
The GI50 was 5.62 µM.

And the TGI (NCI-H522 lung)?
The TGI was 14.2 µM.

What about the GI50 (786-0 renal) of the same molecule?
The GI50 was 14.6 µM.

What about the TGI (786-0 renal) of the same molecule?
The TGI was 44.4 µM.

And the GI50 (EKVX NSCLC)?
The GI50 was 5.63 µM.

What about the TGI (EKVX NSCLC) of the same molecule?
Its TGI is 19.2 µM.

And the GI50 (OVCAR-8 ovarian)?
Its GI50 is 8.33 µM.

What about the TGI (OVCAR-8 ovarian) of the same molecule?
Its TGI is 25.5 µM.

What about the GI50 (MOLT-4 leukemia) of the same molecule?
The GI50 was 6.88 µM.

And the TGI (MOLT-4 leukemia)?
Its TGI is over 50 µM.

What about the GI50 (MDA-MB-231 breast) of the same molecule?
The GI50 was 8.12 µM.

And the TGI (MDA-MB-231 breast)?
Its TGI is 19.9 µM.

What about the GI50 (SW-620 colon) of the same molecule?
The GI50 was 5.93 µM.

What about the TGI (SW-620 colon) of the same molecule?
The TGI was 14.7 µM.

And the GI50 (HT29 colon)?
Its GI50 is 16.1 µM.

And the TGI (HT29 colon)?
The TGI was over 50 µM.

What about the GI50 (SR leukemia) of the same molecule?
Its GI50 is 4.64 µM.

And the TGI (SR leukemia)?
Its TGI is over 50 µM.

What about the GI50 (HOP-62 NSCLC) of the same molecule?
Its GI50 is 9.6 µM.

And the TGI (HOP-62 NSCLC)?
The TGI was 25.5 µM.

And the GI50 (HOP-92 NSCLC)?
The GI50 was 7.96 µM.

And the TGI (HOP-92 NSCLC)?
The TGI was 29.6 µM.

And the GI50 (SK-MEL-5 melanoma)?
The GI50 was 9.26 µM.

What about the TGI (SK-MEL-5 melanoma) of the same molecule?
Its TGI is 16.4 µM.

And the GI50 (UACC-62 melanoma)?
Its GI50 is 7.85 µM.

And the TGI (UACC-62 melanoma)?
Its TGI is 19 µM.

And the GI50 (UACC-257 melanoma)?
Its GI50 is 9.88 µM.

And the TGI (UACC-257 melanoma)?
Its TGI is 20.2 µM.

What about the GI50 (SF-268 CNS) of the same molecule?
The GI50 was 7.42 µM.

What about the TGI (SF-268 CNS) of the same molecule?
Its TGI is 18.5 µM.

And the GI50 (SK-MEL-28 melanoma)?
Its GI50 is 22.8 µM.

What about the TGI (SK-MEL-28 melanoma) of the same molecule?
Its TGI is over 50 µM.

What about the GI50 (OVCAR-4 ovarian) of the same molecule?
Its GI50 is 15.8 µM.

And the TGI (OVCAR-4 ovarian)?
Its TGI is 36.8 µM.

And the GI50 (K-562 leukemia)?
Its GI50 is 14.9 µM.

What about the TGI (K-562 leukemia) of the same molecule?
The TGI was over 50 µM.

And the GI50 (NCI/ADR-RES ovarian)?
The GI50 was over 50 µM.

And the TGI (NCI/ADR-RES ovarian)?
Its TGI is over 50 µM.

And the GI50 (U251 CNS)?
The GI50 was 8.52 µM.

And the TGI (U251 CNS)?
Its TGI is 17.1 µM.

And the GI50 (SNB-19 CNS)?
Its GI50 is 14.1 µM.

What about the TGI (SNB-19 CNS) of the same molecule?
Its TGI is 40.9 µM.

And the GI50 (MDA-MB-435)?
The GI50 was 10.3 µM.

What about the TGI (MDA-MB-435) of the same molecule?
The TGI was 24.2 µM.

And the GI50 (IGROV1 ovarian)?
Its GI50 is 5.77 µM.

And the TGI (IGROV1 ovarian)?
Its TGI is 17.7 µM.

What about the GI50 (RPMI-8226 leukemia) of the same molecule?
The GI50 was 12.5 µM.

And the TGI (RPMI-8226 leukemia)?
The TGI was 35.6 µM.

What about the GI50 (KM12 colon) of the same molecule?
The GI50 was 10.5 µM.

And the TGI (KM12 colon)?
The TGI was 40.4 µM.

What about the GI50 (HL-60(TB) leukemia) of the same molecule?
The GI50 was 11.7 µM.

What about the TGI (HL-60(TB) leukemia) of the same molecule?
The TGI was 34 µM.

And the GI50 (SF-295 CNS)?
The GI50 was 14.8 µM.

And the TGI (SF-295 CNS)?
Its TGI is over 50 µM.

What about the GI50 (SK-OV-3 ovarian) of the same molecule?
Its GI50 is 8.66 µM.

And the TGI (SK-OV-3 ovarian)?
The TGI was 20.4 µM.

And the GI50 (SK-MEL-2 melanoma)?
The GI50 was 6.52 µM.

And the TGI (SK-MEL-2 melanoma)?
Its TGI is 15.5 µM.

What about the GI50 (LOX IMVI melanoma) of the same molecule?
Its GI50 is 6.72 µM.

What about the TGI (LOX IMVI melanoma) of the same molecule?
Its TGI is 14 µM.

And the GI50 (PC-3 prostate)?
The GI50 was 13.2 µM.

What about the TGI (PC-3 prostate) of the same molecule?
Its TGI is over 50 µM.

And the GI50 (NCI-H23 lung)?
The GI50 was 9.97 µM.

And the TGI (NCI-H23 lung)?
Its TGI is 23.4 µM.

And the GI50 (COLO 205 colon)?
The GI50 was 12 µM.

And the TGI (COLO 205 colon)?
Its TGI is over 50 µM.

What about the GI50 (HCT-116 colon) of the same molecule?
Its GI50 is 8.42 µM.

And the TGI (HCT-116 colon)?
Its TGI is 19.8 µM.

What about the GI50 (A549 NSCLC) of the same molecule?
The GI50 was 17.6 µM.

And the TGI (A549 NSCLC)?
The TGI was over 50 µM.

And the GI50 (UO-31 renal)?
Its GI50 is 7.11 µM.

And the TGI (UO-31 renal)?
The TGI was 16.8 µM.

And the GI50 (BT-549 breast)?
The GI50 was 12.3 µM.

And the TGI (BT-549 breast)?
The TGI was 24.1 µM.

What about the GI50 (RXF 393 renal) of the same molecule?
The GI50 was 9.96 µM.

What about the TGI (RXF 393 renal) of the same molecule?
The TGI was 21.1 µM.

And the GI50 (NCI-H460 lung)?
Its GI50 is 7.08 µM.

What about the TGI (NCI-H460 lung) of the same molecule?
The TGI was 15.4 µM.

And the GI50 (M14 melanoma)?
The GI50 was 8.6 µM.

What about the TGI (M14 melanoma) of the same molecule?
Its TGI is 16.7 µM.

What about the GI50 (CAKI-1 renal) of the same molecule?
Its GI50 is 9.56 µM.

What about the TGI (CAKI-1 renal) of the same molecule?
The TGI was 29.6 µM.
